Results from patent publication US12247087B2, “Biological active peptide for improving enzyme activity of ACE2 and application thereof” (priority 2023, dated 2025).
Peptide text beside a SMILES is read from it.

What was measured:
ACE2 = biological target: T1, ACE2 (Mus musculus, UniProt Q8R0I0); experiment: ACE2 active fluorescence detection kit, influence of SCOL polypeptide on ACE2 enzyme activity in mice liver tissue supernatant; type: biochemical
T1 construct: taking 50 mg mice liver tissue, adding 500 μL lysis solution to perform the homogenization treatment; from tissue; host or cells: mouse liver tissue homogenate supernatant
Description: Detection was performed by using Biyuntian ACE2 active fluorescence detection kit; the principle was as follows. […] When the substrate was fully cut by the ACE2, two ends of the polypeptide were separated, two fluorophores were separated, which led to detection of the fluorescence, such that the enzyme activity of the ACE2 protein enzyme can be sensitively detected by the fluorescence detection.
(1) preparation of samples: taking 50 mg mice liver tissue, adding 500 μL lysis solution to perform the homogenization treatment, centrifuging at 4° C. under 12000×g for 5 min, taking the supernatant for next step; […]
(3) adding 2 μL substrates in the 96 hole plate, individually adding 2.2 μL with concentration of 0.004, 0.008, 0.012, 0.016, 0.02 μg/μL of the total concentration in the PCR tubes, adding 8.8 μL supernatant sample in step (1), adding 96.8 μL buffer; and adding 11 μL lysis solution and 96.8 μL buffer in a blank control, mixing, sucking above 98 μL solution by a volley gun and adding to the 96 hole plate with substrates. Performing fluorescence detection by a fluorescence microplate reader after mixing, in particular, the setting temperature was at 37° C., the excitation wavelength was 325 nm, and the emission wavelength was 393 nm. […]

[1] = biological target: T2, novel coronavirus S protein-ACE2 protein binding (Homo sapiens, UniProt Q9BYF1); experiment: biochemical
T2 construct: purchased RayBio
T2 sequence (Q9BYF1 18-740): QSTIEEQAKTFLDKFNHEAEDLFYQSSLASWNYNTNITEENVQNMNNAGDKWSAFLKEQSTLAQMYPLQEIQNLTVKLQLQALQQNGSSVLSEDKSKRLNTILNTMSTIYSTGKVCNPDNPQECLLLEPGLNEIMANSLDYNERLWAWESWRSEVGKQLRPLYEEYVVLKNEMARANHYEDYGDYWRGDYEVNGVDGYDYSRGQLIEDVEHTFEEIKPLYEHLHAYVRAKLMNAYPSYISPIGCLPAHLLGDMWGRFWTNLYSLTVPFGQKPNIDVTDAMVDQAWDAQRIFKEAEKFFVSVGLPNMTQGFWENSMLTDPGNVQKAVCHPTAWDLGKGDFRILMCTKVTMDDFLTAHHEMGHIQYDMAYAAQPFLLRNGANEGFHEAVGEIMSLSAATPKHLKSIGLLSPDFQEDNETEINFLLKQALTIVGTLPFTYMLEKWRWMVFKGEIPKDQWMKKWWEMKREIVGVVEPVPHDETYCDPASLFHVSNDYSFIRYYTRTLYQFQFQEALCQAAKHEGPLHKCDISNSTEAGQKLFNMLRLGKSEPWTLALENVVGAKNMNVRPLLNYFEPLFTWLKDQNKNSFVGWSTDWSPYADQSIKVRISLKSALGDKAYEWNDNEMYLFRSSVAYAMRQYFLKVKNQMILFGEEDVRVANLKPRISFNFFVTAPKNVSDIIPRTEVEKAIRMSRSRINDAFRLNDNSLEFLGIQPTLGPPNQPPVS

T1 sequence (Q8R0I0 18-805): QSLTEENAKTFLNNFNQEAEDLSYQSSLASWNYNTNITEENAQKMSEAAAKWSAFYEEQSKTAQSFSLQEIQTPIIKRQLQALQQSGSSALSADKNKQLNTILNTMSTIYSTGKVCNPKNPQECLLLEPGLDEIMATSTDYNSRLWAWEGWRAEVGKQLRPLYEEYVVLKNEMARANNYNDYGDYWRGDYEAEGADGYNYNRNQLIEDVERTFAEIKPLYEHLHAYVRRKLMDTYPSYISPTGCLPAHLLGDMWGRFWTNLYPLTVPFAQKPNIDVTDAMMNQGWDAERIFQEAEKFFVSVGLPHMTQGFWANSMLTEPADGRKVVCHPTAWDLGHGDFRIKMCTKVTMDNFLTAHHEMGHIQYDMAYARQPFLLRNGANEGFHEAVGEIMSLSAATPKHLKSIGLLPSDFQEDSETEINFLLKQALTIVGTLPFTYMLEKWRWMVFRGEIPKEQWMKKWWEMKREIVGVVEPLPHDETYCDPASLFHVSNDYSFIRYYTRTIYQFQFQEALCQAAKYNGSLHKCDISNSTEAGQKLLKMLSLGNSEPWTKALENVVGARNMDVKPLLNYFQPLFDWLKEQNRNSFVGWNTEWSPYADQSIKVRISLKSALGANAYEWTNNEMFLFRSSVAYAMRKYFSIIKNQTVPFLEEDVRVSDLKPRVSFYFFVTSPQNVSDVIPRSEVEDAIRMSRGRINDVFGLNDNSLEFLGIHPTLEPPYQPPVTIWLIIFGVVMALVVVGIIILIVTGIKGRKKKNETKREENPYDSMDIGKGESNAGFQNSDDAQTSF

CC[C@H](C)[C@H](N)C(=O)N1CCC[C@H]1C(=O)N[C@@H](CO)C(=O)N[C@H](C(=O)N[C@H](C(=O)N1CCC[C@H]1C(=O)N[C@@H](Cc1ccccc1)C(=O)N1CCC[C@H]1C(=O)N[C@@H](CO)C(=O)N[C@H](C(=O)N[C@H](C(=O)N[C@H](C(=O)N[C@@H](C)C(=O)N[C@H](C(=O)N[C@H](C(=O)N[C@H](C(=O)N[C@@H](CCSC)C(=O)O)[C@@H](C)O)[C@@H](C)O)[C@@H](C)O)C(C)C)[C@@H](C)O)[C@@H](C)O)[C@@H](C)O)[C@@H](C)O [SCOL peptide, Ile-Pro-Ser-Thr-Thr-Pro-Phe-Pro-Ser-Thr-Thr-Val-Ala-Thr-Thr-Thr-Met] (H-IPSTTPFPSTTVATTTM-OH; N-terminus and C-terminus assumed)
activity of the ACE2 in the samples with the increase of the SCOL polypeptide concentration (ACE2; 0.004-0.02 μg/μL): increasing trend
highest ACE2 activity relative to the initial activity (ACE2; SCOL polypeptide concentration 0.02 μg/μL, 37° C.): 3.76 times
effect on S protein-ACE2 binding compared with the control group [1]: inhibiting effect
inhibition at 800 µg/mL ([1]; read-out: highest inhibition rate of binding between S protein and ACE2): 65%
